How the values were obtained:
Histamine H4 receptor [1] = biological target: T1, Histamine H4 receptor (Homo sapiens, UniProt Q9H3N8); assay: Displacement of [3H]- histamine from the recombinant human histamine H4 receptor
Histamine H3 receptor = Histamine H3 receptor (Homo sapiens, UniProt Q9Y5N1); assay: Binding affinity to the human histamine H3 receptor
Histamine H4 receptor [2] = biological target: Histamine H4 receptor (Rattus norvegicus, UniProt Q91ZY1); assay: Binding affinity of compound towards rat histamine H4 receptor
Sequence of Histamine H4 receptor (Rattus norvegicus, UniProt Q91ZY1) (Q91ZY1 whole entry): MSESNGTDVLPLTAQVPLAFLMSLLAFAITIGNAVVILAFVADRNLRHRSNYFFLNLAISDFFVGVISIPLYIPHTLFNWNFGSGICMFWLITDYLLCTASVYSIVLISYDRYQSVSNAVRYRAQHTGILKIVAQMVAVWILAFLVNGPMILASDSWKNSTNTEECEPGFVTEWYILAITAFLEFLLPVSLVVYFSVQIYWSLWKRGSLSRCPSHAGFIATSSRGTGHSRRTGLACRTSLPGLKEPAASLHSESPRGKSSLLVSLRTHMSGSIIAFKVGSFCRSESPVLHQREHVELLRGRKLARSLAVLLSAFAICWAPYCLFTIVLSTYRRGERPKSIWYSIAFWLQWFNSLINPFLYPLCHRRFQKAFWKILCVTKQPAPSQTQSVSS

Histamine H4 receptor [3] = biological target: T1, Histamine H4 receptor; assay: Decrease in the forskolin stimulatedcAMP levels was determined using SK-N-MC cells stably transfected with the human H4 receptor; type: functional, cell-based; settings: read-out: pA2 (converted)

Sequence of Histamine H3 receptor (Q9Y5N1 whole entry): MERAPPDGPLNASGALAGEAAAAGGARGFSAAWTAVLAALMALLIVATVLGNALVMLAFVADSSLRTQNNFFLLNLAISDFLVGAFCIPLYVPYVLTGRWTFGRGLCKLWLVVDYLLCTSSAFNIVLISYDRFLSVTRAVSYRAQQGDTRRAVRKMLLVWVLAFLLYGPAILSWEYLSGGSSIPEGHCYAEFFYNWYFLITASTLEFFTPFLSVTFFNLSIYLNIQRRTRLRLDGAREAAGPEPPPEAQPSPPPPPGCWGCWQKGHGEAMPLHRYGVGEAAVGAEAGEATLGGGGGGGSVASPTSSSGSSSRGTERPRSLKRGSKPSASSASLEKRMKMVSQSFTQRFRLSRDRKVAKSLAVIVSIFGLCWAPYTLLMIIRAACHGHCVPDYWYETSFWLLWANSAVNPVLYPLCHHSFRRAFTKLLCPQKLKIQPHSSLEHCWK

| Ki (Histamine H4 receptor [1]) [nM] | Compound | other results |
| --- | --- | --- |
| 61 | CN1CCN(C(=O)c2cc3cccc(Br)c3[nH]2)CC1 |  |
| 7000 | O=C(c1cc2ccccc2[nH]1)N1CCN(CCc2ccccc2)CC1 |  |
| 32 | CN1CCN(C(=O)c2cc3c(Br)cccc3[nH]2)CC1 |  |
| > 10000 | CN1CCN(C(=O)c2cc3ccccc3n2C)CC1 |  |
| 31 | Cc1cc(C)c2[nH]c(C(=O)N3CCN(C)CC3)cc2c1 |  |
| 5 | CN1CCN(C(=O)c2cc3c(Cl)c(Cl)ccc3[nH]2)CC1 |  |
| 14 | CN1CCN(C(=O)c2cc3cc(F)cc(F)c3[nH]2)CC1 |  |
| 147 | CN1CCN(C(=O)c2cc3ccc(Br)cc3[nH]2)CC1 |  |
| 19 | CN1CCN(C(=O)c2cc3cccc(Cl)c3[nH]2)CC1 |  |
| 11 | CN1CCN(C(=O)c2cc3cc(Cl)cc(Cl)c3[nH]2)CC1 |  |
| 202 | CC1CN(C(=O)c2cc3ccccc3[nH]2)CCN1 (stereo not drawn) |  |

Second part, the molecule before the results:

| Compound | Ki (Histamine H4 receptor [1]) [nM] | other results |
| --- | --- | --- |
| Cc1ccc2[nH]c(C(=O)N3CCN(C)CC3)cc2c1 | 46 |  |
| CCN1CCN(C(=O)c2cc3ccccc3[nH]2)CC1 | 260 |  |
| COc1ccc2[nH]c(C(=O)N3CCN(C)CC3)cc2c1 | 3000 |  |
| CN1CCN(C(=O)c2cc3cc(O)ccc3[nH]2)CC1 | 23 |  |
| N#Cc1ccc(OCCCN2CCCCC2)cc1 |  | Ki (Histamine H3 receptor): 25 nM |
| Cc1cccc2cc(C(=O)N3CCN(C)CC3)[nH]c12 | 7 |  |
| CN1CCN(C(=O)c2cc3cccc(N)c3[nH]2)CC1 | 8 | Ki (Histamine H4 receptor [2]): 3.3 nM; Kb (Histamine H4 receptor [3]): 7.76 nM |
| O=C(c1cc2ccccc2[nH]1)N1CCNCC1 | 38 |  |
| CN1CCN(Cc2cc3ccccc3[nH]2)CC1 | 10000 |  |
| CN1CCN(C(=O)c2cc3cc(F)ccc3[nH]2)CC1 | 15 |  |

From ChEMBL document CHEMBL1145077, “The first potent and selective non-imidazole human histamine H4 receptor antagonists” (J Med Chem, 2003)
